Molecular target: T1, Est1E (uncultured bacterium, UniProt A0A345Z1H0)
T1 construct: 3 extra residues kept; no His tag; 29 kDa theoretical; purified by ion exchange and gel filtration
T1 sequence (A0A345Z1H0 1-248): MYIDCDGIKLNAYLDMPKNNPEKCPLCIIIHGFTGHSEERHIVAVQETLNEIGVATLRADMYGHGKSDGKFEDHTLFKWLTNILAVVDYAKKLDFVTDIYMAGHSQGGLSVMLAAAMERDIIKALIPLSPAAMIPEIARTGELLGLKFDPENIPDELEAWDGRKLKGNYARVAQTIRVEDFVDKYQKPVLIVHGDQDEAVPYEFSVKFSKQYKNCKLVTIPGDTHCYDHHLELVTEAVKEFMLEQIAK
Assay: absorbance at […] nm of released 2-chloro-4-nitrophenol
Assay type: biochemical
Conditions: about […] substrate in PBST pH […] °C, […] min (assay as described for culture supernatant; also run on purified enzyme)

With COc1cc(/C=C/C(=O)Oc2ccc([N+](=O)[O-])cc2Cl)ccc1O [CNPF, 2-chloro-4-nitrophenyl ferulate] the “absorbance at 410 nm of released 2-chloro-4-nitrophenol” value was “The activity of Est1E in the supernatant was measured by means of 2-chloro-4-nitrophenyl ferulate (CNPF)”.

Reference: publication PMC6116501, “Improved secretory expression of lignocellulolytic enzymes in Kluyveromyces marxianus by promoter and signal sequence engineering” (Biotechnology for Biofuels, 2018)
